Molecules are shown by their SMILES.

In general, IC50 refers to the point on the concentration scale where inhibition reaches its midpoint. A high value points to weaker potency in that assay.

In one test the target is T1, Thyroid hormone receptor beta (Homo sapiens, UniProt P10828).
T1 sequence (P10828 whole entry): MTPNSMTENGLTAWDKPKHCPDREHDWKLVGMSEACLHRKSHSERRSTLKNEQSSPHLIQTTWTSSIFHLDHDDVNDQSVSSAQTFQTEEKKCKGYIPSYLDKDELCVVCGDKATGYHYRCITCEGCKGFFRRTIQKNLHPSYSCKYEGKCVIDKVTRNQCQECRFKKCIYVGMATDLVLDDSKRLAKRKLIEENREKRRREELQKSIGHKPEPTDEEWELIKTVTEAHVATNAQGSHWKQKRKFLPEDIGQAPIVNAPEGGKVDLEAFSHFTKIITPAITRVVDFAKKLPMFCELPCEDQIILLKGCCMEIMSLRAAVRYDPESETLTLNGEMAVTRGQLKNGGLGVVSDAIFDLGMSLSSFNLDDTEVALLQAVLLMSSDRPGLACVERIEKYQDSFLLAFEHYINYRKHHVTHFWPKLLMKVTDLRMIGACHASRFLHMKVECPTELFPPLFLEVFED
In the case of `CC(C)c1cc(Oc2c(Cl)cc3[nH]c(C(=O)O)cc(=O)c3c2Cl)ccc1O`, the IC50 was 15.1 nM. As for `COc1cccc(CCNC(=O)c2cc(Oc3c(Br)cc(CC(=O)O)cc3Br)ccc2O)c1`, the IC50 is 4.9 nM. Compound `O=C(O)CCc1cc(Br)c(OC2CCCCC2)c(Br)c1` gave an IC50 of 191 nM.

In turn, `CC(C)c1cc(Oc2c(Br)cc3c(c2Br)CC(C(=O)O)N3)ccc1O` (stereo unspecified) gave an IC50 of 8.51 nM.

Compound `O=C(O)Cc1cc(Cl)c(Oc2ccc(O)c(C(=O)NCc3ccccc3)c2)c(Cl)c1` showed a half-maximal inhibitory concentration (IC50) of 3.47 nM. `O=C(O)Cc1cc(Br)c(OC2CCCCC2)c(Br)c1`: the IC50 is 776 nM. Compound `O=C(O)Cc1cc(Br)c(Oc2ccc(O)c(C(=O)Nc3ccccc3)c2)c(Br)c1` showed an IC50 of 35.5 nM. As to `O=C(O)Cc1cc(Cl)c(Oc2ccc(O)c(-c3cccc(C(F)(F)F)c3)c2)c(Cl)c1`, the concentration for half-maximal inhibition (IC50) is 0.851 nM. On the same count and under the same terms, in the case of `O=C(O)Cc1cc(Cl)c(Oc2ccc(O)c(-c3ccccc3C(F)(F)F)c2)c(Cl)c1` it was 3.24 nM. The same measure, in the same setting: then `O=C(O)Cc1cc(Br)c(Oc2ccc(O)c(Cc3ccc(C(F)(F)F)cc3)c2)c(Br)c1`, with 9.55 nM.

The next test has as its target T2, Thyroid hormone receptor alpha (Homo sapiens, UniProt P10827).
T2 sequence (P10827 whole entry): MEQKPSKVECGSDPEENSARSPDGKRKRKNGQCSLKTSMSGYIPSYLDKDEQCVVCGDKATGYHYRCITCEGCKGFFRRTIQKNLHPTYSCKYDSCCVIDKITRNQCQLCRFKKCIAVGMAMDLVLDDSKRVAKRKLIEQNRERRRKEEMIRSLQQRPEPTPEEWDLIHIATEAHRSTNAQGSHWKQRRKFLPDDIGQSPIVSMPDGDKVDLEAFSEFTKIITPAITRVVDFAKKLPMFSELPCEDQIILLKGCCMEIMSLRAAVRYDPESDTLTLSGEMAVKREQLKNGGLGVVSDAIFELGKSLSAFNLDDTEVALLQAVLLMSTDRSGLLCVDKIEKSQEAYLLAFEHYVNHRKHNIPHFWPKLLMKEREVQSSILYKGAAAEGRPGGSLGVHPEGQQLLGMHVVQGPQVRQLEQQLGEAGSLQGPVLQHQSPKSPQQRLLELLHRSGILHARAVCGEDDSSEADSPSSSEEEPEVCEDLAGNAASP
Compound `O=C(O)Cc1cc(Br)c(Oc2ccc(O)c(C(=O)NCc3ccccc3)c2)c(Br)c1` gave an IC50 of 85.1 nM. For `O=C(O)Cc1cc(Br)c(Oc2ccc(O)c(Oc3ccc(O)cc3)c2)c(Br)c1`, the IC50 is 240 nM. In the case of `O=C(O)Cc1cc(Cl)c(Oc2ccc(O)c(-c3cccc(O)c3)c2)c(Cl)c1`, inhibition was half-maximal at 1170 nM (IC50). Consider `O=C(O)CCc1cc(Br)c(OC2CCCCC2)c(Br)c1`, for which it took 457 nM to reach half-maximal inhibition (IC50). As to `CC(C)c1cc(Oc2c(Br)cc3c(c2Br)CC(C(=O)O)N3)ccc1O` (stereo unspecified), the IC50 was 38 nM. Same read-out and setting: in the case of `O=C(O)Cc1cc(Cl)c(Oc2ccc(O)c(C(=O)NCc3ccccc3)c2)c(Cl)c1` it was 126 nM. As for `O=C(O)Cc1cc(Br)c(OC2CCCCC2)c(Br)c1`, 2690 nM corresponded to half-maximal inhibition (IC50). On to `O=C(O)Cc1cc(Cl)c(Oc2ccc(O)c(-c3ccccc3)c2)c(Cl)c1`, for which the IC50 is 129 nM. On the same count and under the same terms, then `CCCCOc1c(Br)cc(CC(=O)O)cc1Br`, with 26300 nM; and `O=C(O)Cc1cc(Br)c(Oc2ccc(O)c(C(=O)NCCc3ccccn3)c2)c(Br)c1`, with 1150 nM. Regarding `O=C(O)Cc1cc(Br)c(Oc2ccc(O)c(Cc3ccc(C(F)(F)F)cc3)c2)c(Br)c1`, the 50% inhibitory concentration (IC50) was 339 nM.

(Values after ChEMBL document CHEMBL1140629, “2D QSAR studies on thyroid hormone receptor ligands” (Bioorg Med Chem, 2007).)
